Patent US20190359653A1, “SELECTIVE PEPTIDE INHIBITORS OF FRIZZLED” (Genentech, Inc., priority 2016, published 2019)
“Also recorded” adds a separate entry of the source.

How the values were obtained:
[1] = tested on: mouse intestinal organoids; assay: organoid budding / stem cell potential; assay type: cell-based; details: 48 h; dFz7-21 1-200 μM, Fz7-21S 200 μM; FIG. 18
Description: Mouse organoids were established from isolated crypts collected from the entire length of the small intestine and maintained as previously described (Sato et al. (2009) Nature 459, 262-265 (2009). All mouse derived tissue was performed according to the animal use guidelines of Genentech, a Member of the Roche Group, and the Institutional Animal Care and Use Committee, conforming to California State legal and ethical practices. Mouse sex was not selected for. Organoids were passaged at least twice per week and grown using IntestiCult Organoid growth media (cat. no. 06005; StemCell Technologies). […]
The organoid culture system faithfully recapitulates the intestinal epithelium including the presence of crypt-villus morphology. […] Therefore, stem cell function of the organoid population (a Wnt-dependent process) was quantitatively assessed by scoring the number of formed buds per organoid (Grabinger et al. (2014) “Ex vivo culture of intestinal crypt organoids as a model system for assessing cell death induction in intestinal epithelial cells and enteropathy.” Cell Death & Disease 5, e1228). […] Morphologies of representative mouse intestinal organoids after 48 h treatment are shown in FIGS. 17A-G. Next, organoid stem cell (SC) potential after peptide treatment was quantified. […]

[2] = tested on: Wnt3a-mediated β-catenin signaling in HEK293-TB cells; assay type: cell-based
[3] = target: T1, Wnt5a binding to FZD4 CRD (Homo sapiens, UniProt Q9ULV1); assay: ELISA of biotinylated Wnt5a binding to FZD CRD-Fc; details: peptide 0-10 μM
T1 construct: hFZD4 CRD-Fc (cat no. 5847-FZ); purchased R&D systems 5847-FZ
T1 sequence (Q9ULV1 40-161 limits assumed): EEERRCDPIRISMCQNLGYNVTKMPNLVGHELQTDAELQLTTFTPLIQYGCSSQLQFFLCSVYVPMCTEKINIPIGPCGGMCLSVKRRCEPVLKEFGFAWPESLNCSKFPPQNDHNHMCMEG
Description: 384-well Maxisorp plates (cat. no. 464718; Thermo Scientific) were incubated with 30 μL of Neutravidin (cat. no. 31000, Thermo Scientific; 2 μg/mL in PBS) overnight at 4° C. Plates were then washed with PBST and blocked with PBS/1% BSA for 1 hour at RT and then washed with PBST prior to further processing. The binding assay was conducted in 96 well plates (cat no. 83007-374; VWR) which were blocked with PBS/1% BSA overnight at 4° C. hFZD4 CRD-Fc or hFZD7 CRD-Fc (63 ng/mL) were incubated with either Bio-Wnt3a (25 ng/mL) or Bio-Wnt5a (50 ng/mL) in the presence of 4-fold serial dilutions of the indicated peptide in PBS overnight at 4° C. All assays included hFZD9 CRD-mIgG2A protein as a negative control. hFZD7 CRD-His was suspended in 150 mM NaCl, 50 mM Tris-HCl at pH 7.5 and when used in assays an equal volume of the same buffer control was used. The binding assay mixtures were transferred to the Neutravidin coated plates and incubated for ˜1 h at RT. The wells were then washed with PBST, incubated with anti-hIgG1-HRP (1:10,000 suspended in PBS supplemented with 1% BSA; cat. no. A18817, Invitrogen), and washed again with PBST. The signal was developed with the addition of TMB reagent (following the manufacturer's recommendation; KPL; 50-76-00) for 15 min prior to the addition of an equal volume of 1 M phosphoric acid for 10 min Absorbance was measured at 450 nm using a Tekan M1000 plate reader. Values were collected and plotted using Prism Graphpad software. All assay conditions using peptides were at 1% DMSO final concentration. […]
Briefly, the assays were performed using (a) FZD1 CRD-Fc, (b) FZD2 CRD-Fc, (c) FZD4 CRD-Fc, or (d) FZD7 CRD-Fc as the capture reagent and biotinylated-Wnt5a as the detection reagent. […] Streptavidin-HRP was used to detect biotinylated Wnt5a, and HRP activity was measured as a function of chemiluminescence detection at 428 nm. […]

Row | Sequence | budding events / organoid stem cell potential [1] | Reduction in fold potency vs. dimer [2] | inhibition of Wnt3a signaling [2] | effect on Wnt5a binding to FZD4 CRD [3] | improvement compared to monomeric Fz7-21 in inhibiting Wnt3a signaling ([2]; FIG. 15)
1 | LPSDDLEFWSHVMY [Fz7-21S, negative control] | did not show any major effects | >9,000 fold | not found to inhibit | showed no effect | 
2 | LPSDDLEFWCHVMY [dFz7-21] | dramatically reduced |  |  | did not show any effect; also recorded: no such effect | ~40 fold
